# Source: PMC7190724, “Improved GPCR ligands from nanobody tethering” (Nature Communications, 2020)
# “And” between values parts separate entries of the source, which are not always exact repeats. Equal values may be shown once. Where a SMILES comes first, the peptide text is derived from it. [ ]: non-standard residue; d: D form. Aib = CC(C)(N)C(=O)O
# Key:
# PTHR1GFP = biological target: T1, PTHR1GFP (Homo sapiens, UniProt Q03431); test: cAMP response (GloSensor luminescence), HEK293 stably expressing PTHR1GFP (GPG10); assay type: cell-based
# T1 sequence (Q03431 27-593): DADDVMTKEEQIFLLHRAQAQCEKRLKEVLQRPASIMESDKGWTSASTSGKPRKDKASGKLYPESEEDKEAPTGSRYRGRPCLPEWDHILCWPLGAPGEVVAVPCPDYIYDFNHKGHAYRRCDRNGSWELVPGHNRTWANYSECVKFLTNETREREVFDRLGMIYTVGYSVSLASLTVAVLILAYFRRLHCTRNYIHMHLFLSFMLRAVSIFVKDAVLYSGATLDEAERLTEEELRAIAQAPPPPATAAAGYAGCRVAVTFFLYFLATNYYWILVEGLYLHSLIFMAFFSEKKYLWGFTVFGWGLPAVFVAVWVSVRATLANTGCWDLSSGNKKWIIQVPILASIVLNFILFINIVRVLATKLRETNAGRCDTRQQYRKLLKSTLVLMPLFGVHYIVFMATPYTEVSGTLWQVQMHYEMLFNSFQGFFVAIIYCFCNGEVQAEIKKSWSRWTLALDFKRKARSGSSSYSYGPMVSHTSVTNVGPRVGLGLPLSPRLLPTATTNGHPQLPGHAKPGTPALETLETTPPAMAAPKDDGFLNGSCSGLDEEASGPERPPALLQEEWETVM
# Method: (§1) These assays were performed as previously described. Briefly, HEK-293-derived cell lines that stably express the Glosensor cAMP reporter (Promega Corp.)[30] and PTHR1, a PTHR1 variant, or PTHR2 were seeded into white sided 96-well plates (50,000 cells/well) and grown to confluency. Confluent monolayers of cells were pre-incubated with CO2 independent medium containing D-luciferin (0.5 mM) at 37 °C until a stable baseline level of luminescence was established (20 min). Varying concentrations of ligands were then added, and the time course of luminescence response was recorded using BioTek plate reader. The maximal luminescence response (observed 12–16 min after ligand addition) was used to construct dose-response data sets (Table 1, Supplementary Fig. 6).
# (§2) Data were processed using Microsoft Excel and GraphPad Prism 6. Data from cAMP dose–response assays were analyzed using a sigmoidal dose–response model with variable slope. Data sets were statistically compared by using Student’s t test (two-tailed) assuming unequal variances for the two sets.
# Supplementary Figure 1. […]
# GFP variant known as pHluorin2 engrafted into the receptor(ref. 19, main text). c) HEK293 cells stably expressing PTHR1-GFP were treated with varied doses of the indicated peptides or conjugates and activation was assessed by measuring luminescence from a cAMP-activated luciferase variant. Values listed represent EC50 values (mean ± SD). Each value comes from ≥ 3 independent experiments. Further details, including the number of replicates for each measurement and the normalized maximal responses induced, are reported in Supplementary Table 1. […]
# than 5% of the maximal response induced for that cell line.
# Peptide or conjugate PTHR1GFP
# hPTHR2 = biological target: T2, hPTHR2 (Homo sapiens, UniProt P49190); test: cAMP response (GloSensor luminescence), HEK293 stably expressing hPTHR2; assay type: cell-based; conditions: for EC50: peak GloSensor luminescence, mean ± SD, n = 3-4, read-out: EC50, cAMP induction
# T2 construct: expressed in transfected cells
# T2 sequence (P49190 25-550): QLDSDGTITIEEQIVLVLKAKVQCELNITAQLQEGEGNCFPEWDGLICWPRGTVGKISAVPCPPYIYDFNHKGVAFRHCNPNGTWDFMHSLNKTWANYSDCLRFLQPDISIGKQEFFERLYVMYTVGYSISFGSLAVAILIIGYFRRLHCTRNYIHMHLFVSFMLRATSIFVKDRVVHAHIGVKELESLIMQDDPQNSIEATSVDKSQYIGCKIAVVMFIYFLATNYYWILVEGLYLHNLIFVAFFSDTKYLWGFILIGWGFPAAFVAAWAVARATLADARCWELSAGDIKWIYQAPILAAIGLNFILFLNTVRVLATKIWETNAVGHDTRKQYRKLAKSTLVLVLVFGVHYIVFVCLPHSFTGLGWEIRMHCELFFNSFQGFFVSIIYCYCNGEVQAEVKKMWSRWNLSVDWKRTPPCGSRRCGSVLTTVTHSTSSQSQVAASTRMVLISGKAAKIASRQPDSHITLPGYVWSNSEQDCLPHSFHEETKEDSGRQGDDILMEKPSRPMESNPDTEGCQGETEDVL
# Method: as §1, §2
# PTHR1YFPΔECD = biological target: T3, PTHR1YFPΔECD (Homo sapiens, UniProt Q03431); test: cAMP response (GloSensor luminescence), HEK293 stably expressing PTHR1YFPΔECD (GD5Y); assay type: cell-based; conditions: peak GloSensor luminescence; mean ± SD, ≥3 independent experiments; read-out: EC50, cAMP induction
# T3 construct: expressed in transfected cells; host or cells: HEK293 (clone GD5Y) with GloSensor cAMP reporter
# T3 sequence (Q03431 with tags, fused parts or gaps limits assumed): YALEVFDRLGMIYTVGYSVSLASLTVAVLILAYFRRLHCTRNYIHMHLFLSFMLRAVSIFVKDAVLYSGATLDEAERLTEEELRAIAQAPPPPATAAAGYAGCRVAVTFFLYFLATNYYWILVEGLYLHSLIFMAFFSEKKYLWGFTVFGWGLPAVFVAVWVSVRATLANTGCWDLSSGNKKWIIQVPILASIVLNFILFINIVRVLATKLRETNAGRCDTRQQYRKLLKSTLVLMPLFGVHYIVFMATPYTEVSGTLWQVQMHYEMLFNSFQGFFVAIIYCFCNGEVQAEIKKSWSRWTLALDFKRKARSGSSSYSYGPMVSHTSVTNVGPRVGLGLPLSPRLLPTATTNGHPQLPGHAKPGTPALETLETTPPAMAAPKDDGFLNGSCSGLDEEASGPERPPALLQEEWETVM
# Method: (§3) A HEK293 cell line stably expressing β-Arrestin2-YFP (GBR24) was constructed similarly. PTHR1_6E was produced using the Q5 Site-directed mutagenesis kit (NEB) and used to prepare a stably transfected HEK293-derived cell line. Annotated sequence data for all PTHR1 constructs are found in Supplementary Fig. 19. Aligned sequences of VHHs used in this study are shown in Supplementary Fig. 20.
# (§4) These assays were performed as previously described. […] Confluent monolayers of cells were pre-incubated with CO2 independent medium containing D-luciferin (0.5 mM) at 37 °C until a stable baseline level of luminescence was established (20 min). Varying concentrations of ligands were then added, and the time course of luminescence response was recorded using BioTek plate reader.
# as §2
# hPTHR1 = biological target: T4, hPTHR1 (Homo sapiens, UniProt Q03431); test: cAMP response (GloSensor luminescence), HEK293 stably expressing human PTHR1 (GP2.3); assay type: cell-based; conditions: human PTHR1 cells
# T4 construct: expressed in transfected cells; host or cells: HEK293 (clone GP2.3) with GloSensor cAMP reporter
# T4 sequence (Q03431 27-593): T1 sequence (Q03431 27-593)
# Method: as §3, §4, §2
# blood ionized calcium = test: Calcemic response in mice (blood ionized calcium); assay type: in vivo, mouse; conditions: for iCa measurement, blood ionized calcium: individual mouse
# Method: Fig. 5 VHH conjugation potentiates an in vivo response. a Schematic of the experiment performed in mice. b Measurement of blood ionized calcium levels in mice injected with PTH and conjugates. Data presented is from a single experiment. The double line break represents a discontinuity in the Y-axis. Mice (CD1 females, 11 weeks) were injected subcutaneously with the indicated ligand (dose = 35 nmol/kg). Blood was drawn at the indicated time points and analyzed for ionized calcium levels. Data points indicate mean ± standard error of the mean (SEM), n = 4. A two-sided t-test without corrections for multiple comparisons was used for comparisons. *p = 0.005 vs. vehicle. ^#p = 0.015 vs. vehicle. ^●p = 0.038 vs. M-PTH(1-14). °p = 0.008 vs. M-PTH(1-14). The sequence of M-PTH(1-14) used here differs from PTH(1-14) in Fig. 2 and is UVUEIQLMHQXAKW where U is Aib and X is homoarginine. Source data are provided in the Source Data File. […] Traces for the calcemic responses of individual mice is found in Supplementary Fig. 18. Source data can be found in the Source Data file.
# Mice (CD1 female, age 11 weeks) were treated in accordance with the ethical guidelines adopted by Massachusetts General Hospital. […] Peptides and conjugates were administered at doses that allowed for differentiation between compounds with differing levels of in vivo activity. Statistical analyses were performed assuming Gaussian distribution of data. Mice (n = 4 per compound) were injected subcutaneously with vehicle (10 mM citric acid/150 mM NaCl/0.05% Tween-80, pH 5.0) or vehicle containing PTH or conjugate at a dose of 35 nmol/kg body weight. […] Blood was withdrawn just before injection (t = 0) or at times thereafter. Tail vein blood was collected and immediately analyzed. Blood Ca^2+ concentration was measured with a Siemens RapidLab 348 Ca2+/pH analyzer.
compound,measurement,setting,value
CC[C@H](C)[C@H](NC(=O)[C@H](CCC(=O)O)NC(=O)C(C)(C)NC(=O)[C@@H](NC(=O)[C@H](C)N)C(C)C)C(=O)N[C@@H](CCC(N)=O)C(=O)N[C@@H](CC(C)C)C(=O)N[C@@H](CCSC)C(=O)N[C@@H](Cc1c[nH]cn1)C(=O)N[C@@H](CCC(N)=O)C(=O)N[C@@H](CCCNC(=N)N)C(=O)N[C@@H](CS)C(N)=O [PTH(1-11)] (H-AV[Aib]EIQLMHQRC-NH2),EC50,PTHR1GFP,79 ± 45 nM
same,response at 100 uM,hPTHR2; 100 uM,20%
same,EC50,hPTHR2,> 100000 nM
same,EC50,PTHR1YFPΔECD,246 nM
CC[C@H](C)[C@H](NC(=O)[C@H](CCC(=O)O)NC(=O)[C@H](CO)NC(=O)[C@@H](NC(=O)[C@@H](N)CO)C(C)C)C(=O)N[C@@H](CCC(N)=O)C(=O)N[C@@H](CC(C)C)C(=O)N[C@@H](CCSC)C(=O)N[C@@H](Cc1c[nH]cn1)C(=O)N[C@@H](CC(N)=O)C(=O)N[C@@H](CC(C)C)C(=O)NCC(=O)N[C@@H](CCCCN)C(=O)N[C@@H](Cc1c[nH]cn1)C(=O)N[C@@H](CC(C)C)C(=O)N[C@@H](CC(N)=O)C(=O)N[C@@H](CO)C(=O)N[C@@H](CCSC)C(=O)N[C@@H](CCC(=O)O)C(=O)N[C@@H](CCCNC(=N)N)C(=O)N[C@H](C(=O)N[C@@H](CCC(=O)O)C(=O)N[C@@H](Cc1c[nH]c2ccccc12)C(=O)N[C@@H](CC(C)C)C(=O)N[C@@H](CCCNC(=N)N)C(=O)N[C@@H](CCCCN)C(=O)N[C@@H](CCCCN)C(=O)N[C@@H](CC(C)C)C(=O)N[C@@H](CCC(N)=O)C(=O)N[C@@H](CC(=O)O)C(=O)N[C@H](C(=O)N[C@@H](Cc1c[nH]cn1)C(=O)N[C@@H](CC(N)=O)C(=O)N[C@@H](Cc1ccccc1)C(=O)N[C@@H](CS)C(N)=O)C(C)C)C(C)C [PTH(1-34)],EC50,PTHR1GFP,0.4 ± 0.8 nM
same,EC50,hPTHR2,1.45 ± 2.42 nM
same,EC50,PTHR1YFPΔECD,> 500 nM and 689 nM
"G3-PTH(1-14): PTH(1-14) analog with an N-terminal triglycine extension (SVSEIQLMHNLGKH; N-terminal triglycine extension; UniProt P01270 32-45, looked up, fragment)",cAMP activity,hPTHR1,reduction in potency
"UVUEIQLMHQXAKW [M-PTH(1-14), modified PTH(1-14) analog used in mice, UVUEIQLMHQXAKW, U is Aib and X is homoarginine]",blood ionized calcium response,"blood ionized calcium; 35 nmol/kg s.c., CD1 female mice, n = 4, single experiment",little if any activity
same,"iCa measurement, blood ionized calcium","blood ionized calcium; 1 h after 35 nmol/kg s.c., 1st of 4 in group (mouse # 5, 9, 13)",1.36 mM
same,"iCa measurement, blood ionized calcium","blood ionized calcium; 1 h after 35 nmol/kg s.c., 2nd of 4 in group (mouse # 6, 10, 14)",1.34 mM
same,"iCa measurement, blood ionized calcium","blood ionized calcium; 1 h after 35 nmol/kg s.c., 3rd of 4 in group (mouse # 7, 11, 15)",1.29 mM
same,"iCa measurement, blood ionized calcium","blood ionized calcium; 1 h after 35 nmol/kg s.c., 4th of 4 in group (mouse # 8, 12, 16)",1.33 mM
same,"iCa measurement, blood ionized calcium","blood ionized calcium; 2 h after 35 nmol/kg s.c., 1st of 4 in group (mouse # 5, 9, 13)",1.31 mM
same,"iCa measurement, blood ionized calcium","blood ionized calcium; 2 h after 35 nmol/kg s.c., 2nd of 4 in group (mouse # 6, 10, 14)",1.32 mM
same,"iCa measurement, blood ionized calcium","blood ionized calcium; 2 h after 35 nmol/kg s.c., 3rd of 4 in group (mouse # 7, 11, 15)",1.27 mM
same,"iCa measurement, blood ionized calcium","blood ionized calcium; 2 h after 35 nmol/kg s.c., 4th of 4 in group (mouse # 8, 12, 16)",1.28 mM
same,"ionized Ca, group value quoted by reviewer","blood ionized calcium; 2h after injection, 35 nmol/kg s.c.",1.29 mM
same,"iCa measurement, blood ionized calcium","blood ionized calcium; 4 h after 35 nmol/kg s.c., 1st of 4 in group (mouse # 5, 9, 13)",1.31 mM
same,"iCa measurement, blood ionized calcium","blood ionized calcium; 4 h after 35 nmol/kg s.c., 2nd of 4 in group (mouse # 6, 10, 14)",1.33 mM
same,"iCa measurement, blood ionized calcium","blood ionized calcium; 4 h after 35 nmol/kg s.c., 3rd of 4 in group (mouse # 7, 11, 15)",1.29 mM
same,"iCa measurement, blood ionized calcium","blood ionized calcium; 4 h after 35 nmol/kg s.c., 4th of 4 in group (mouse # 8, 12, 16)",1.29 mM
same,"iCa measurement, blood ionized calcium","blood ionized calcium; 8 h after 35 nmol/kg s.c., 1st of 4 in group (mouse # 5, 9, 13)",1.33 mM
same,"iCa measurement, blood ionized calcium","blood ionized calcium; 8 h after 35 nmol/kg s.c., 2nd of 4 in group (mouse # 6, 10, 14)",1.30 mM
same,"iCa measurement, blood ionized calcium","blood ionized calcium; 8 h after 35 nmol/kg s.c., 3rd of 4 in group (mouse # 7, 11, 15)",1.28 mM
same,"iCa measurement, blood ionized calcium","blood ionized calcium; 8 h after 35 nmol/kg s.c., 4th of 4 in group (mouse # 8, 12, 16)",1.30 mM
